According to patent publication US20250051276A1 (priority 2021, published 2025):

Columns and labels:
5-HT2A [1] = molecular target: T1, 5-HT2A (Homo sapiens, UniProt P28223); test: Serotonin 5-HT2A in vitro cellular IPOne agonism assay; type: cell-based; design: host or cells: CHO-K1; settings: CHO-K1 cells, IPOne HTRF, agonist mode
Method: (§1) Serotonin 5-HT2A In Vitro Cellular IPOne Agonism Assay. The 5-HT2A IPOne HTRF assay was performed at Epics Therapeutics S.A. (Belgium, FAST-0505I) using conventional methods. Briefly, CHO-K1 cells expressing human recombinant 5-HT2A receptor grown to mid-log phase in culture media without antibiotics were detached with PBS-EDTA, centrifuged, and resuspended in medium without antibiotics buffer. 20,000 cells were distributed in a 96 well plate and incubated overnight at 37° C. with 5% CO2.
For agonist testing, the medium was removed and 20 μl of assay buffer plus 20 μl of test compound or reference agonist are added in each well. The plate is incubated for 60 min. at 37° C. with 5% CO2.
(§2) After addition of the lysis buffer containing IP1-d2 and anti-IP1 cryptate detection reagents, plates were incubated 1-hour at room temperature, and fluorescence ratios were measured according to the manufacturer specification, with the HTRF kit.

5-HT2A [2] = molecular target: T1, 5-HT2A; test: Serotonin 5-HT2A in vitro cellular IPOne antagonism assay; type: cell-based; design: host or cells: CHO-K1; settings: CHO-K1 cells, IPOne HTRF, reference agonist a-Me-5HT; read-out: 5-HT2A IPOne Antagonist Activity
Method: as §1, with “IPOne Antagonism” for “IPOne Agonism”, “5-HT2A TPOne” for “5-HT2A IPOne”, “FAST-0505I) in antagonism mode” for “FAST-0505I)”, “with […]” for “with 5%”
For antagonist testing, a reference agonist a-Me-5HT was added and fluorescence signal monitored for several minutes, followed by addition of 20 μl of assay buffer plus 20 μl of test compound or reference antagonist ketanserin, in each well. The plate was incubated for 60 min. at 37° C. with 5% CO2.
as §2

rat cortical neurons = test: Neurite outgrowth in primary neuronal cultures assay; type: cell-based; design: key: A: Statistically significant mean increase as a percent of DMSO control at 10 μM or less; B: No statistically significant mean increase as a percent of DMSO control at 10 μM or less; settings: 72 h, vs DMSO control, 10 μM or less
From the text: Neurite Outgrowth in Primary Neuronal Cultures Assay. Changes in the pattern of neurite outgrowth have been implicated in psychiatric and neurodegenerative disorders as well as traumatic injuries. The discovery of new compounds that can positively affect neuritogenesis are important for developing new therapeutics for neurological diseases. Measurement of neurite outgrowth of rat cortical neurons using an automated image-based assay was used to determine the neuroplastic effects of the compounds of the present disclosure. The neurite outgrowth assay was performed at Neurofit SAS (France) as described below.
Pregnant Wistar rats (Janvier; France) were used for the study. They were delivered 6 days before their use. Upon arrival at Neurofit animal facility, they were housed one per cage and maintained in a room with controlled temperature (21-22° C.) and a reversed light-dark cycle (12 h/12 h; lights on: 17:30-05:30; lights off: 05:30-17:30) with food and water available ad libitum.
Female Wistar rats of 17 days gestation were killed by cervical dislocation and the fetuses were removed from the uterus. Their brains were placed in ice-cold medium of Leibovitz (L15, Gibco, Fisher bioblock, France). Cortices were dissected and meninges were carefully removed. The cortical neurons were dissociated by trypsinization for 30 min at 37° C. (trypsin-EDTA, Gibco) in presence of 0.1 mg/ml DNAse I (Roche, France). The reaction was stopped by addition of Dulbecco's Modified Eagle Medium (DMEM; Gibco) with 10% of fetal bovine serum (FBS; Gibco). The suspension was triturated with a 10-ml pipette and using a needle syringe 21 G and centrifuged at 350×g for 10 min at room temperature. The pellet of dissociated cells was resuspended in a medium consisting of Neurobasal (Gibco) supplemented with 2% B27 supplement (Gibco), 0.5 mM L-Glutamine (Gibco), an antibiotic-antimicotic mixture. Viable cells were counted in a Neubauer cytometer using the trypan blue exclusion test (Sigma). Cells were seeded at a density of 10000 cells per well in 96-well plate (Costar) precoated with poly-L-lysine. Test compound at different concentrations were added to the cultures. Donepezil (positive control) was tested at 250 nM.
After 72 h (3 days) of plating, cultures were fixed with paraformaldehyde in PBS (4%, Sigma) for 30 min at 4° C. Then, cells were successively permeabilized with 0.1% Triton X100 for 30 min, saturated with PBS containing 3% of BSA and were incubated 1 h with anti-beta III tubulin antibody (Sigma) at 1/10 000 in PBS containing 0.5% of BSA. Cells were washed three times with PBS containing 0.5% of BSA, and they were incubated 1 h with goat anti-mouse antibody coupled with AF488 (Invitrogen A11001) diluted at 1/1000 in PBS containing 0.5% of BSA. Finally, nuclei were staining with DAPI 1 mg/ml at 1/1000 in PBS containing 0.5% of BSA. After rinsing with PBS, the plate was filmed and neurite networks were examined and analyzed using High-Content Screening (CellInsight, Thermo Scientific). The average number of neurites per neuron and the average total length of neurites per neuron were the main parameters analyzed. Analysis of data was performed using analysis of variance (ANOVA). The Fisher's Protected Least Significant Difference test was used for multiple comparisons. A p value ≤0.05 was considered significant. The software used is StatView 5.0 from SAS Institut.

5-HT2A [3] = molecular target: T1, 5-HT2A; test: Serotonin 5-HT2A in vitro radioligand binding competition assay; design: purchased Epics Therapeutics S.A. (Belgium) FAST-0505B; host or cells: membrane extracts; settings: radiotracer [3H]-DOI, membrane extracts
Method: Serotonin 5-HT2A In Vitro Radioligand Binding Competition Assay. The 5-HT2A radioligand binding competition assay was performed at Epics Therapeutics S.A. (Belgium, FAST-0505B) using conventional methods. Briefly, competition binding was performed in duplicate in the wells of a 96 well plate (Master Block, Greiner, 786201) containing binding buffer (optimized for each receptor), membrane extracts (amount of protein/well optimized for each receptor), radiotracer [^3H]-DOI (final concentration optimized for each receptor) and test compound. Nonspecific binding was determined by co-incubation with 200-fold excess of cold competitor. The samples were incubated in a final volume of 0.1 ml at a temperature and for a duration optimized for each receptor and then filtered over filter plates. Filters were washed six times with 0.5 ml of ice-cold washing buffer (optimized for each receptor) and 50 µl of Microscint 20 (Packard) were added in each well. The plates were incubated 15 min on an orbital shaker and then counted with a TopCount™ for 1 min/well.

5HT2A sensor [4] = settings: cited from earlier work
5HT2A sensor [5] = settings: cited from earlier work; remark: listed apart in the source

T1 sequence (P28223 whole entry): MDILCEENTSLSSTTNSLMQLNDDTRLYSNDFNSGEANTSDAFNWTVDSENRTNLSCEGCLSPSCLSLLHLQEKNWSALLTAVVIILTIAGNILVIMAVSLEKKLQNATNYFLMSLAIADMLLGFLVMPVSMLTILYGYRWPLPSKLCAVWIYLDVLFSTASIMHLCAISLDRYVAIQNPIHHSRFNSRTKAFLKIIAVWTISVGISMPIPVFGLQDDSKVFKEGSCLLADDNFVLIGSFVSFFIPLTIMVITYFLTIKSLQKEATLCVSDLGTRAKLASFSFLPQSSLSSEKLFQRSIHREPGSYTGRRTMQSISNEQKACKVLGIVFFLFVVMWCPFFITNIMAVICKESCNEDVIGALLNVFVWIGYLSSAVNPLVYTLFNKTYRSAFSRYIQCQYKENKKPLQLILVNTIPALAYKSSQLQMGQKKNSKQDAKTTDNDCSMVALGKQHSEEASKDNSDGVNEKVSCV

Row | SMILES | EC50 (5-HT2A [1]) | IC50 (5-HT2A [2]) | Increase in Neurite Length (rat cortical neurons) | Increase in Neurite Number (rat cortical neurons) | Increase in Number of Branchpoints (rat cortical neurons) | IC50 (5-HT2A [3]) | activation of the 5HT2A sensor assay in agonist mode (5HT2A sensor [4]) | competition with 5-HT in the 5HT2A sensor assay in antagonist mode (5HT2A sensor [5])
1 | C[C@@H](N)Cn1ccc2cc(OCc3cccc(F)c3)ccc21 [Compound 6, (R)-1-(5-((3-fluorobenzyl)oxy)-1H-indol-1-yl)propan-2-amine] | 1000 to 10000 nM | 101 to 1000 nM | A | B | A | 101 to 1000 nM |  | 
2 | CN[C@H](C)Cc1ccc2c(c1)OCO2 [L-MDMA] |  |  |  |  |  |  | do not activate the 5HT2A sensor assay in agonist mode | 
3 | C[C@H](Cn1ccc2cc(OCc3ccccc3)ccc21)N(C)C [Compound 3, (R)-1-(5-(benzyloxy)-1H-indol-1-yl)-N,N-dimethylpropan-2-amine] | > 10000 nM | 10 to 100 nM | A | B | B | 101 to 1000 nM |  | 
4 | CN(C)CCc1c[nH]c2ccccc12 [DMT, N,N-dimethyltryptamine] |  |  |  |  |  |  | activate the 5HT2A sensor assay in agonist mode | 
5 | C[C@@H](N)Cn1ccc2cc(OCc3ccccc3F)ccc21 [Compound 7, (R)-1-(5-((2-fluorobenzyl)oxy)-1H-indol-1-yl)propan-2-amine] | 1000 to 10000 nM |  | B | A | A | 1000 to 10000 nM |  | 
6 | C[C@H](Cn1ccc2cc(OCc3ccccc3)ccc21)N1CCCC1 [Compound 12, (R)-5-(benzyloxy)-1-(2-(pyrrolidin-1-yl)propyl)-1H-indole] | > 10000 nM | 101 to 1000 nM | A | A | B | 1000 to 10000 nM |  | 
7 | CCN(CC)CCc1c[nH]c2cc(F)ccc12 [Compound 6-F-DET, 6-F-DET] |  |  |  |  |  |  | do not activate the 5HT2A sensor assay in agonist mode | can compete with 5HT binding to 5HT2A
8 | C[C@H](Cn1ccc2cc(OCc3ccccc3F)ccc21)N(C)C [Compound 10, (R)-1-(5-((2-fluorobenzyl)oxy)-1H-indol-1-yl)-N,N-dimethylpropan-2-amine] | > 10000 nM | 101 to 1000 nM | A | A | A | 10 to 100 nM |  | 
9 | CCN(CC)[C@H](C)Cn1ccc2cc(OCc3ccccc3)ccc21 [Compound 11, (R)-1-(5-(benzyloxy)-1H-indol-1-yl)-N,N-diethylpropan-2-amine] | > 10000 nM | 101 to 1000 nM | A | A | A | 1000 to 10000 nM |  | 
10 | CCN(CC)C(=O)[C@@H]1C=C2c3cccc4[nH]cc(c34)C[C@H]2N(C)C1 [LSD] |  |  |  |  |  |  | activate the 5HT2A sensor assay in agonist mode | 
11 | C[C@H](Cn1ccc2cc(OCc3ccc(F)cc3)ccc21)N(C)C [Compound 8, (R)-1-(5-((4-fluorobenzyl)oxy)-1H-indol-1-yl)-N,N-dimethylpropan-2-amine] | > 10000 nM | < 10 nM | A | A | A | 10 to 100 nM |  | 
12 | CN[C@H](C)Cn1ccc2cc(OCc3ccccc3)ccc21 [Compound 4, (R)-1-(5-(benzyloxy)-1H-indol-1-yl)-N-methylpropan-2-amine] | > 10000 nM | 101 to 1000 nM | A | A | A | 1000 to 10000 nM |  | 
13 | C[C@H](Cn1ccc2nc(OCc3ccccc3)ccc21)N(C)C [Compound 1, (R)-1-(5-(benzyloxy)-1H-pyrrolo[3,2-b]pyridin-1-yl)-N,N-dimethylpropan-2-amine] | > 10000 nM | 101 to 1000 nM | A | A | A | 101 to 1000 nM |  | 
14 | C[C@@H](N)Cn1ccc2cc(OCc3ccc(F)cc3)ccc21 [Compound 5, (R)-1-(5-((4-fluorobenzyl)oxy)-1H-indol-1-yl)propan-2-amine] | 1000 to 10000 nM | 101 to 1000 nM | B | B | B | 101 to 1000 nM |  | 
15 | O=C(c1ccc(F)cc1)C1CCN(CCn2c(=O)[nH]c3ccccc3c2=O)CC1 [Ketanserin] |  |  |  |  |  |  | do not activate the 5HT2A sensor assay in agonist mode | can compete with 5HT binding to 5HT2A
16 | COc1cc(CC(C)N)c(OC)cc1I (stereo not drawn) [DOI] |  |  |  |  |  |  | activate the 5HT2A sensor assay in agonist mode | 
17 | C[C@H](Cn1ccc2cc(OCc3cccc(F)c3)ccc21)N(C)C [Compound 9, (R)-1-(5-((3-fluorobenzyl)oxy)-1H-indol-1-yl)-N,N-dimethylpropan-2-amine] | > 10000 nM | 10 to 100 nM | A | A | A | 101 to 1000 nM |  | 
18 | C[C@@H](N)Cn1ccc2nc(OCc3ccccc3)ccc21 [Compound 2, (R)-1-(5-(benzyloxy)-1H-pyrrolo[3,2-b]pyridin-1-yl)propan-2-amine] | > 10000 nM |  |  |  |  | > 10000 nM |  | 
